From patent publication US20050233413A1, “Neuroprotective polypeptides and methods of use” (priority 2002, published 2005)
pIC50: −log10 of the molar value. Read-outs that look alike come from different tables or passages of the source. Where a SMILES comes first, the peptide text is derived from it. Where no end group is shown, it is not given here. [ ]: non-standard residue; d: D form.

Columns and labels:
[1] = system: F11 cells transfected with V642I-APP, NL-APP, M146L-PS1 or N141I-PS2 cDNA; assay type: cell-based, rat/mouse hybrid; settings: for concentration of full cytoprotection against FAD genes / pIC50: each of V642I-APP; for pIC50: read-out: IC50 of suppression of neuronal cell death by FAD genes
Source text: (§1) F11 cells, the hybrid of a rat embryonic-day-13 primary cultured primary neuron and a mouse neuroblastoma cell, are one of the best models for primary cultured neurons as they carry representative characteristics of primary neurons, such as generation of action potentials without differentiation by NGF [22]. They have been used in various studies of is neuronal functions. Using these cells, the underlying mechanisms for cytotoxicity by V642I-APP have well been analyzed. Cytotoxicity by V642 mutants of APP has also been confirmed in multiple different systems. F11 cells were grown in Ham's F-12 (GibcoBRL, Gaithersburg, Md.) plus 18% fetal bovine serum (FBS; Hyclone, Logan, Utah) and antibiotics, as described previously. F11 cells (7×10^4 cell/well in a 6-well plate cultured in Ham's F-12 plus 18% FBS for 12-16 hr) were transfected with plasmids encoding FAD genes by lipofection [FAD cDNA 2 μg, LipofectAMINE 4 μl, PLUS reagent 8 μl (GibcoBRL)] in the absence of serum for 3 hr, and were incubated with Ham's F-12 plus 18% FBS for 2 hr. Then, culture media were changed to Ham's F-12 plus 10% FBS with or without HN peptides, and cells were cultured for an additional 67 hr. Seventy-two hr after transfection, cell mortality was measured by Trypan blue exclusion assay, performed as follows. Cells were suspended by pipetting gently, and 50 μl of 0.4% (finally 0.08%) Trypan blue solution (Sigma, St Louis, Mo.) was mixed with 200 μl of the cell suspension at room temperature. Stained cells were counted within 3 min after the mixture with Trypan blue solution.

[2] = system: Aβ and four FAD genes (V642I-APP, NL-APP, M146L-PS1, and N141I-PS2); assay type: cell-based; settings: for Full protection (minimal concentration that exerted full cytoprotection): Table 5, marked *
Source text: as §1
(§2) The primary culture of mouse cortical neurons was performed in poly-L-lysine-coated 24-well plates or 96-well plates (Sumitomo Bakelite, Akita, Japan), in the absence of serum and the presence of N2 supplement, as described previously. The purity of neurons by this method was >98%. Prepared neurons (for neurons seeded in 96-well plates: 2.5×10^4 or 5×10^4 cells/well, 100 μl culture medium/well; for neurons seeded in 24-well plates: 1.25×10^5 cells/well, 250 μl culture medium/well) were preincubated with or without 10 μM (in case for the experiment with 10 μM HN) synthetic HN for 16 hr, and treated with 25 μM Aβ in the presence or absence of 10 μM HN for 72 hr, respectively. As primary neurons were vulnerable to transient dryness during medium exchange, we treated neurons with 25 μM Aβ as follows. First, a half volume (50 μl for neurons in 96-well plates; 125 μl for neurons in 24-well plates) of old medium was discarded. Then, the same volume (50 μl for neurons in 96-well plates; 125 μl for neurons in 24-well plates) of prewarned fresh medium containing 10 μM HN and 50 μM Aβ (Aβ was directly resolved) was added to the culture. The Aβ peptides used at 25 μM to induce neurotoxicity formed aggregation in the medium during the cell culture at 37° C. for 72 hr. as described. The WST-8 cell viability assay was performed, using Cell Counting Kit-8 (Wako Pure Chemical Industries, Osaka, Japan), as described previously.
(§3) Calcein assay was performed with Calcein-AM {3′,6′-di-(O-acetyl)-2′,7′-bis [N,N-bis(carboxymethyl)aminomethyl] fluorescein, tetraacetoxymethyl ester; Dojindo}, as described previously. These assays were simultaneously performed in the experiments with neurons seeded in 96-well plates, as follows. Seventy-two hours after Aβ treatment, cells were added with the mixture of 10 μl WST-8 solution and 1 μl of 600 μM Calcein-AM. After 2 hr incubation in a CO2 incubator at 37° C., WST-8 absorbance was measured as OD450. After exchanging the medium to PBS to lower the background, Calcein-specific fluorescence (ex=485 nm, em=535 nm) was observed by fluorescence microscopy or measured by a spectrofluorometer (Wallac1420 ARVOsx Multi Label Counter). […]

[3] = system: V642I-APP, NL-APP, M146L-PS1, N141I-PS2 holoprotein expression in F11 cells; test: Immunoblot analysis of transfected FAD gene expression; assay type: cell-based, rat/mouse hybrid; settings: F11 cells treated with peptide
Procedure: Immunoblot analysis was performed as described. For the analysis of transfected FAD gene expression, lysates (20 μg/lane) from cells transfected with each FAD gene (V642I-APP, NL-APP, M146L-PS1, N141I-PS2) were submitted to SDS-PAGE and were electrically blotted to a PVDF sheet. After blocking, the sheet was soaked with antibodies [for APP mutants: 5 μg/ml 22C11 (CHEMICON, Temecula, Calif.); for PS1 mutant: 1/2000 of anti-PS1 N-terminus antibody (CHEMICON) for PS2 mutant: 1/500 of anti-PS2 antibody (Cell Signaling Technology, Beverly, Mass.)] and then with HRP-labeled secondary antibodies. The antigenic bands were visualized by ECL (Amersham Pharmacia Biotech, Uppsala, Sweden).

[4] = system: primary cultured neurons treated with 25 μM Aβ1-43; assay type: cell-based; settings: for concentration of full neuroprotection against Aβ1-43 / suppression of Aβ neurotoxicity in the presence of 100 μM EFLIVIKS: 25 μM Aβ1-43; for potency of neuroprotection against Aβ relative to HN: times as high as / higher than authentic HN; for suppression of Aβ neurotoxicity in the presence of 100 μM EFLIVIKS: EF-HN and EF-HNG at 10 μM, WST-8 and Calcein assays
Procedure: (§4) In one assay, transfection with V642I-APP causes cell death in F11 neuronal hybrid cells. In the other, treatment with Aβ peptides causes cell death in primary cultured cortical neurons.
as §2
Calcein assay was performed with Calcein-AM {3′,6′-di-(O-acetyl)-2′,7′-bis [N,N-bis(carboxymethyl)aminomethyl] fluorescein, tetraacetoxymethyl ester; Dojindo}, as described previously. These assays were simultaneously performed in the experiments with neurons seeded in 96-well plates, as follows. Seventy-two hours after Aβ treatment, cells were added with the mixture of 10 μl WST-8 solution and 1 μl of 600 μM Calcein-AM. After 2 hr incubation in a CO2 incubator at 37° C., WST-8 absorbance was measured as OD450. After exchanging the medium to PBS to lower the background, Calcein-specific fluorescence (ex=485 nm, em=535 nm) was observed by fluorescence microscopy or measured by a spectrofluorometer (Wallac1420 ARVOsx Multi Label Counter). Most cell viability data using Calcein assay and WST-8 assay were obtained from neurons seeded at 5×10^4 cells/well in 96-well plates (high-density neurons) and confirmed by both assays with the cells seeded at 2.5×10^4 cells/well (low-density neurons).
Some experiments for Calcein assay were performed with neurons seeded in 24-well plates. […] In most experiments using primary neurons, four independent experiments were performed and the means? S. D. of the results were discussed.

[5] = system: Aβ and four FAD genes (V642I-APP, NL-APP, M146L-PS1, and N141I-PS2); settings: cited from earlier work
[6] = system: F11 cells transfected with V642I-APP cDNA; test: F11 cell death by V642I-APP transfection (Trypan blue exclusion); assay type: cell-based; settings: times higher than that of HN
Source text: as §4, §1

[7] = system: Aβ and V642I-APP; assay type: cell-based; settings: Table 5, marked **
Source text: as §1, §2, §3

[8] = Apparent stability of peptides in the culture medium; assay type: physicochemical; settings: 72-hr incubation of 10 μM peptides in the cultured medium; data not shown
Source text: The Ser^7 residue plays a role different from that of Ser^14. S7A substitution nullified the action of HN, while Ser^7 racemation had no influence. […] Given the fact that EFLIVIKS or EFLIVKS is the established amino acid sequence to form a dimer and that EFLIVIKS alone had no cytoprotective action, it is most likely that Ser^7 is essential for HN to self-dimerize and that self-dimerization of HN is essential for the action of HN. […] This level of stability alterations could not account for the drastic potentiation of the rescue action by the fusion with EFLIVIKS.

## MAPRGF(D-Ser)CLLLLT(D-Ser)EIDLPVKRRA (MAPRGF[dS]CLLLLT[dS]EIDLPVKRRA) [D-Ser7/14 HN]
[1]; V642I-APP
  cytoprotective action against FAD genes (in words): virtually identical to those of (D-Ser^14)HN
[2]
  Full protection (minimal concentration that exerted full cytoprotection): ˜10 nM

## MAPRGFSCLLLLT(D-S)EIDLPVKRRA [D-Ser14 HN]
[3]
  CMV-promoter-driven expression of V642I-APP, NL-APP, M146L-PS1, or N141I-PS2 holoprotein: did not suppress
[1]; V642I-APP
  concentration of full suppression of cell death by FAD mutants: 10 nM
  cytoprotective action against FAD genes (in words): virtually identical to that of HNG
[2]
  Full protection (minimal concentration that exerted full cytoprotection): ˜10 nM
[4]
  concentration of full neuroprotection against Aβ1-43: 1 to 10 nM
  potency of neuroprotection against Aβ relative to HN: 100-1000 times

## CC[C@H](C)[C@H](NC(=O)[C@H](CCC(=O)O)NC(=O)[C@@H](CO)NC(=O)[C@@H](NC(=O)[C@H](CC(C)C)NC(=O)[C@H](CC(C)C)NC(=O)[C@H](CC(C)C)NC(=O)[C@H](CC(C)C)NC(=O)[C@H](CS)NC(=O)[C@H](CO)NC(=O)[C@H](C)NC(=O)CNC(=O)[C@H](C)NC(=O)[C@@H]1CCCN1)[C@@H](C)O)C(=O)N[C@@H](CC(=O)O)C(=O)N[C@@H](CC(C)C)C(=O)N1CCC[C@H]1C(=O)O [AGA-(D-Ser14)HN17, PAGASCLLLLT(D-Ser)EIDLP] (H-PAGASCLLLLT[dS]EIDLP-OH; N-terminus and C-terminus assumed)
[3]
  CMV-promoter-driven expression of V642I-APP, NL-APP, M146L-PS1, or N141I-PS2 holoprotein: did not suppress
[1]
  concentration of full cytoprotection against FAD genes: 100 pM
  pIC50: ~11.00
[2]
  pIC50: 10.00 to 11.00
  action potency compared with another peptide (in words): as potent as AGAD-Ser^14)HN
  Full protection (minimal concentration that exerted full cytoprotection): ˜100 pM

## CC[C@H](C)[C@H](NC(=O)[C@H](CCC(=O)O)NC(=O)[C@@H](CO)NC(=O)[C@@H](NC(=O)[C@H](CC(C)C)NC(=O)[C@H](CC(C)C)NC(=O)[C@H](CC(C)C)NC(=O)[C@H](CC(C)C)NC(=O)[C@H](CS)NC(=O)[C@H](CO)NC(=O)[C@H](C)NC(=O)CNC(=O)[C@H](C)NC(=O)[C@@H]1CCCN1C(=O)[C@H](C)NC(=O)[C@@H](N)CCSC)[C@@H](C)O)C(=O)N[C@@H](CC(=O)O)C(=O)N[C@@H](CC(C)C)C(=O)N1CCC[C@H]1C(=O)N[C@H](C(=O)N[C@@H](CCCCN)C(=O)N[C@@H](CCCNC(=N)N)C(=O)N[C@@H](CCCNC(=N)N)C(=O)N[C@@H](C)C(=O)O)C(C)C [AGA-(D-Ser14)HN, MAPAGASCLLLLT(D-Ser)EIDLPVKRRA] (H-MAPAGASCLLLLT[dS]EIDLPVKRRA-OH; N-terminus and C-terminus assumed)
[3]
  CMV-promoter-driven expression of V642I-APP, NL-APP, M146L-PS1, or N141I-PS2 holoprotein: not affected
[2]
  concentration of full cytoprotection: 100 pM
  Full protection (minimal concentration that exerted full cytoprotection): 100 to 300 pM

## PRGFSCLLLLTSEIDLP [HN17, Pro3-Pro19 region of HN]
[5]; as disclosed in [16]
  cytoprotection potency compared with authentic HN (in words): as potent in cytoprotection as authentic HN

## EFLIVIKSMAPRGFSCLLLLTSEIDLPVKRRA [EF-HN]
[6]
  potency of cytoprotection against V642I-APP relative to HN: about 100 times
[7]
  Full protection (minimal concentration that exerted full cytoprotection): ˜100 nM
[4]
  suppression of Aβ neurotoxicity in the presence of 100 μM EFLIVIKS: could fully suppress Aβ neurotoxicity
  potency of neuroprotection against Aβ relative to HN: about 100 times
[8]
  amount of peptide relative to the amount at time zero: virtually unaltered

## EFLIVIKSMAPAGASCLLLLTGEIDLPVKRRA [EF-AGA-HNG]
[3]
  CMV-promoter-driven expression of V642I-APP, NL-APP, M146L-PS1, or N141I-PS2 holoprotein: little or only marginal alteration
[1]
  concentration of full cytoprotection against FAD genes: 10 pM
[2]
  Full protection (minimal concentration that exerted full cytoprotection): ˜10 pM
[4]
  pIC50: ~12.00
  concentration of full neuroprotection against Aβ1-43: 0.01 nM

## MAPAGASCLLLLTGEIDLPVKRRA [AGA-HNG, reference compound]
[3]
  CMV-promoter-driven expression of V642I-APP, NL-APP, M146L-PS1, or N141I-PS2 holoprotein: little or only marginal alteration
[2]
  concentration of full cytoprotection: 100 to 300 pM
  Full protection (minimal concentration that exerted full cytoprotection): 100 to 300 pM
[5]; previously reported [16]
  augmentation of the potency of HNG by Ala substitution at both Arg4 and Phe6: 3-10 times
  concentration of full neuroprotection: 100 to 300 pM

## EFLIVIKSMAPRGFSCLLLLTGEIDLPVKRRA [EF-HNG]
[1]
  pIC50: ~11.00
[2]
  pIC50: 10.00 to 11.00
  Full protection (minimal concentration that exerted full cytoprotection): ˜1 nM
[4]
  concentration of full neuroprotection against Aβ1-43: 1 nM
  suppression of Aβ neurotoxicity in the presence of 100 μM EFLIVIKS: could fully suppress Aβ neurotoxicity
[4]; both Calcein fluorescence and WST-8 absorbance assays, read-out: IC50 of cytoprotection against Aβ1-43
  pIC50: ~10.00
[8]
  amount of peptide relative to the amount at time zero: virtually unaltered
